Target: T1, BB0401 (GltPBb) (Borreliella burgdorferi, UniProt O51362)
T1 construct: gene BB_0401; full-length bb0401 ORF, IPTG-inducible from shuttle vector pibb0401 in chromosomal bb0401-deleted B. burgdorferi (bb0401^cond); intact cells; no tag mentioned
Assay: heavy-isotope uptake into conditional mutant with and without IPTG, LC-MS/MS
Format: cell-based
Details: BSK-II medium with unlabelled amino acids, 37 C, 2 h or 6 h uptake after 48 h or 7 d without inducer

T1 sequence (O51362 entry or part of it): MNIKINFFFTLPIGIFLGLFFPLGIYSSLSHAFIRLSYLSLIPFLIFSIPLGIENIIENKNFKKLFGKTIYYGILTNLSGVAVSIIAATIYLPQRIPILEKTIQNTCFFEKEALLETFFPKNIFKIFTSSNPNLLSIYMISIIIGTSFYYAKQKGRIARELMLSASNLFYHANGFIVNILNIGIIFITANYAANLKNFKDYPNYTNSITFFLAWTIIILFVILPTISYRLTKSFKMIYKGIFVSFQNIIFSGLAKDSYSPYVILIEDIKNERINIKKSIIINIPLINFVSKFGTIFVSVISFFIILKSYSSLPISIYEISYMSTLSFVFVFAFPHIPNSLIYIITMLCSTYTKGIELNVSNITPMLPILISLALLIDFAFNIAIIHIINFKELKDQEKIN

SMILES	heavy-isotope uptake into conditional mutant with and without IPTG, LC-MS/MS (labelled compound (13C4,15N1), 30 mg/L)	heavy-isotope uptake into conditional mutant with and without IPTG, LC-MS/MS (labelled compound (13C5,15N1), 86.2 mg/L)
N[C@@H](CC(=O)O)C(=O)O [heavy aspartate (^13C4,^15N1)]	more dramatic reduction in the amount of heavy labeled aspartate and glutamate imported	
N[C@@H](CCC(=O)O)C(=O)O [heavy glutamate (^13C5,^15N1)]		more dramatic reduction in the amount of heavy labeled aspartate and glutamate imported

— publication doi:10.1101/2025.03.14.643351, “Dissection of amino acid acquisition pathways in Borrelia burgdorferi uncovers unique physiological responses” (bioRxiv, 2025)
